Assay results published in patent publication US9273033B2, “Substituted pyridone derivatives as PDE10 inhibitors” (Merck Sharp & Dohme Corp., priority 2012, dated 2016).

Biological target: human PDE10A2 (Homo sapiens (Human), UniProt Q9Y233)
Assay: PDE10 fluorescence polarization (IMAP FP) inhibition assay
Type: biochemical
Conditions: human PDE10A2, FAM-labeled cAMP substrate, read-out: PDE10A Ki
Method: The activity of the compounds in accordance with the present invention as PDE10 inhibitors may be readily determined without undue experimentation using a fluorescence polarization (FP) methodology that is well known in the art (Huang, W., et al., J. Biomol Screen, 2002, 7: 215).
In a typical experiment the PDE10 inhibitory activity of the compounds of the present invention was determined in accordance with the following experimental method. PDE10A2 was amplified from human fetal brain cDNA (Clontech, Mountain View, Calif.) using a forward primer corresponding to nucleotides 56-77 of human PDE10A2 (Accession No. AF127480, Genbank Identifier 4894716), containing a Kozak consensus sequence, and a reverse primer corresponding to nucleotides 2406-2413 of human PDE10A2 (Accession No. AF127480, Genbank Identifier 4894716). Amplification with Easy-A polymerase (Stratagene, La Jolla, Calif.) was 95° C. for 2 minutes followed by thirty three cycles of 95° C. for 40 seconds, 55° C. for 30 seconds, and 72° C. for 2 minutes 48 seconds. Final extension was 72° C. for 7 minutes. The PCR product was TA cloned into pcDNA3.2-TOPO (Invitrogen, Carlsbad, Calif.) according to standard protocol. AD293 cells with 70-80% confluency were transiently transfected with human PDE10A2/pcDNA3.2-TOPO using Lipofectamine 2000 according to manufacturer specifications (Invitrogen, Carlsbad, Calif.). Cells were harvested 48 hours post-transfection and lysed by sonication (setting 3, 10×5 sec pulses) in a buffer containing 20 mM HEPES, 1 mM EDTA and protease inhibitor cocktail (Roche). Lysate was collected by centrifugation at 75,000×g for 20 minutes. Supernatant containing the cytoplasmic fraction was used for evaluation of PDE10A2 activity. The fluorescence polarization assay for cyclic nucleotide phosphodiesterases was performed using an IMAP® FP kit supplied by Molecular Devices, Sunnyvale, Calif. (product # R8139). IMAPU technology has been applied previously to phosphodiesterase assays (Huang, W., et al., J. Biomol Screen, 2002, 7: 215). Assays were performed at room temperature in 384-well microtiter plates with an incubation volume of 20.2 μL. Solutions of test compounds were prepared in DMSO and serially diluted with DMSO to yield 8 μL of each of 10 solutions differing by 3-fold in concentration, at 32 serial dilutions per plate. 100% inhibition is determined using a known PDE10 inhibitor, which can be any compound that is present at 5,000 times its Ki value in the assay described as follows, such as papaverine (see Siuciak, et al. Neuropharmacology (2006) 51:386-396; Becker, et al. Behav Brain Res (2008) 186(2):155-60; Threlfell, et al., J Pharmacol Exp Ther (2009) 328(3):785-795), 2-{4-[pyridin-4-yl-1-(2,2,2-trifluoroethyl)-1H-pyrazol-3-yl]phenoxymethyl}quinoline succinic acid or 2-[4-(1-methyl-4-pyridin-4-yl-1H-pyrazol-3-yl)-phenoxymethyl]quinoline succinic acid (see Schmidt, et al. J Pharmacol Exp Ther (2008) 325:681-690; Threlfell, et al., J Pharmacol Exp Ther (2009) 328(3): 785-795). 0% of inhibition is determined by using DMSO (1% final concentrations).
A Labcyte Echo 555 (Labcyte, Sunnyvale, Calif.) is used to dispense 200 nL from each well of the titration plate to the 384 well assay plate. A solution of enzyme (1/1600 dilution from aliquots; sufficient to produce 20% substrate conversion) and a separate solution of FAM-labeled cAMP PDE from Molecular Devices (product # R7506), at a final concentration of 50 nM are made in the assay buffer (10 mM Tris HCl, pH 7.2, 10 mM MgCl2, 0.05% NaN3 0.01% Tween-20, and 1 mM DTT). The enzyme and the substrate are then added to the assay plates in two consecutive additions of 10 μL, and then shaken to mix. The reaction is allowed to proceed at room temperature for 30 minutes. A binding solution is then made from the kit components, comprised of 80% Solution A, 20% Solution B and binding reagent at a volume of 1/600 the total binding solution.

human PDE10A2, sequence (Q9Y233 267-1055): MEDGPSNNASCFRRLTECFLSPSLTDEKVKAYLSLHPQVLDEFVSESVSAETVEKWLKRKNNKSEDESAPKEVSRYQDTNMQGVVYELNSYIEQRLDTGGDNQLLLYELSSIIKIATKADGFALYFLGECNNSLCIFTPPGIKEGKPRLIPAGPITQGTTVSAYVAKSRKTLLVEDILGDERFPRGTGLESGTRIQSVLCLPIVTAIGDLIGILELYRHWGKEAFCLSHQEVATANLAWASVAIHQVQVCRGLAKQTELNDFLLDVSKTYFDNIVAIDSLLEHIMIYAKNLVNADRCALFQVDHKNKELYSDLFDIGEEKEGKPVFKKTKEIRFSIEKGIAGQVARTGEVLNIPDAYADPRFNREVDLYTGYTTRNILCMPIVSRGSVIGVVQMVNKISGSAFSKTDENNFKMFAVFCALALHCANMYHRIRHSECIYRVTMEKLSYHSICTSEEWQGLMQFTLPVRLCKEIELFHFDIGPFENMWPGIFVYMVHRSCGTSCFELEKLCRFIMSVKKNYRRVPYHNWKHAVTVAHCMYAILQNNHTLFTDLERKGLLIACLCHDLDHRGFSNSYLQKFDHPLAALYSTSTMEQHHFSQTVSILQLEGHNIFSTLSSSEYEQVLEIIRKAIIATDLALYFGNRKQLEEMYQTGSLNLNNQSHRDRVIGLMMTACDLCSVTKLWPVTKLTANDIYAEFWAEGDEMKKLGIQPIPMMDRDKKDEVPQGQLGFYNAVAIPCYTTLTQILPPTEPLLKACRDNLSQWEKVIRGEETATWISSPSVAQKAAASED

| SMILES | Ki [nM] |
| --- | --- |
| COC(=O)Cn1cc(-c2cnc(C)nc2OC[C@H]2C[C@@H]2c2ccc(OC)cn2)ccc1=O [Example 47, methyl 2-(5-(4-(((1S,2S)-2-(5-methoxypyridin-2-yl)cyclopropyl)methoxy)-2-methylpyrimidin-5-yl)-2-oxopyridin-1(2H)-yl)acetate] | 3.65 |
| [2H]C([2H])([2H])n1cc(-c2cnc(C)nc2OC[C@H]2C[C@@H]2c2ccc(C)cn2)ccc1=O [Example 48, 1-methyl-5-(2-methyl-4-(((1S,2S)-2-(5-methylpyridin-2-yl)cyclopropyl)methoxy)pyrimidin-5-yl)pyridin-2(1H)-one] | 1.7 |
| Cc1ccc([C@H]2C[C@@H]2COc2nc(C)ncc2-c2ccc(=O)n(CC3CC3)c2)nc1 [Example 49, 1-(cyclopropylmethyl)-5-(2-methyl-4-(((1S,2S)-2-(5-methylpyridin-2-yl)cyclopropyl)methoxy)pyrimidin-5-yl)pyridin-2(1H)-one] | 0.983 |
| [2H]C([2H])([2H])n1cc(-c2cnc(C)nc2OC[C@H]2C[C@@H]2c2ccc(OC)cn2)ccc1=O [Example 51, 5-(4-(((1S,2S)-2-(5-methoxypyridin-2-yl)cyclopropyl)methoxy)-2-methylpyrimidin-5-yl)-1-methylpyridin-2(1H)-one] | 0.946 |
| COc1ccc([C@H]2C[C@@H]2COc2nc(C)ncc2-c2ccc(=O)n(CC(F)(F)F)c2)nc1 [Example 52, 5-(4-(((1S,2S)-2-(5-methoxypyridin-2-yl)cyclopropyl)methoxy)-2-methylpyrimidin-5-yl)-1-(2,2,2-trifluoroethyl)pyridin-2(1H)-one] | 3.11 |
| COc1ccc([C@H]2C[C@@H]2COc2nc(C)ncc2-c2ccc(=O)n(CC3CC3)c2)nc1 [Example 53, 1-(cyclopropylmethyl)-5-(4-(((1S,2S)-2-(5-methoxypyridin-2-yl)cyclopropyl)methoxy)-2-methylpyrimidin-5-yl)pyridin-2(1H)-one] | 0.377 |
| COc1cc(-c2cnc(C)nc2OC[C@H]2C[C@@H]2c2ccc3c(n2)CCC3)cn(C)c1=O [Example 54, 5-(4-(((1S,2S)-2-(6,7-dihydro-5H-cyclopenta[b]pyridin-2-yl)cyclopropyl)methoxy)-2-methylpyrimidin-5-yl)-3-methoxy-1-methylpyridin-2(1H)-one] | 0.045 |
| CCc1cc(-c2cnc(C)nc2OC[C@H]2C[C@@H]2c2ccc(C)cn2)cn(C)c1=O [Example 55, 3-ethyl-1-methyl-5-(2-methyl-4-(((1S,2S)-2-(5-methylpyridin-2-yl)cyclopropyl)methoxy)pyrimidin-5-yl)pyridin-2(1H)-one] | 0.347 |
| COc1cc(-c2cnc(C)nc2OC[C@H]2C[C@@H]2c2ccc3ccccc3n2)cn(C)c1=O [Example 56, 3-methoxy-1-methyl-5-(2-methyl-4-(((1S,2S)-2-(quinolin-2-yl)cyclopropyl)methoxy)pyrimidin-5-yl)pyridin-2(1H)-one] | 0.004 |
| COc1cc(-c2cnc(C)nc2OC[C@H]2C[C@@H]2c2ccc(C)cn2)cn(C)c1=O [Example 57, 3-methoxy-1-methyl-5-(2-methyl-4-(((1S,2S)-2-(5-methylpyridin-2-yl)cyclopropyl)methoxy)pyrimidin-5-yl)pyridin-2(1H)-one] | 0.349 |
| Cc1ncc(-c2ccc(=O)n(C)c2C)c(OC[C@H]2C[C@@H]2c2ccc3c(n2)CCC3)n1 [Example 58, 5-(4-(((1S,2S)-2-(6,7-dihydro-5H-cyclopenta[b]pyridin-2-yl)cyclopropyl)methoxy)-2-methylpyrimidin-5-yl)-1,6-dimethylpyridin-2(1H)-one] | 0.481 |
| Cc1ccc([C@H]2C[C@@H]2COc2nc(C)ncc2-c2cc(C#N)c(=O)n(C)c2C)nc1 [Example 59, 1,6-dimethyl-5-(2-methyl-4-(((1S,2S)-2-(5-methylpyridin-2-yl)cyclopropyl)methoxy)pyrimidin-5-yl)-2-oxo-1,2-dihydropyridine-3-carbonitrile] | 0.426 |
| COc1ccc([C@H]2C[C@@H]2COc2nc(C)ncc2-c2cc(C#N)c(=O)n(C)c2C)nc1 [Example 60, 5-(4-(((1S,2S)-2-(5-methoxypyridin-2-yl)cyclopropyl)methoxy)-2-methylpyrimidin-5-yl)-1,6-dimethyl-2-oxo-1,2-dihydropyridine-3-carbonitrile] | 0.117 |
| COc1ccc([C@H]2C[C@@H]2COc2nc(C)ncc2-c2cn(C)c(=O)cn2)nc1 [Example 61, 5-(4-(((1S,2S)-2-(5-methoxypyridin-2-yl)cyclopropyl)methoxy)-2-methylpyrimidin-5-yl)-1-methylpyrazin-2(1H)-one] | 16.7 |
| Cc1ccc([C@H]2C[C@@H]2COc2nc(C)ncc2-c2cn(C)c(=O)cn2)nc1 [Example 62, 1-methyl-5-(2-methyl-4-(((1S,2S)-2-(5-methylpyridin-2-yl)cyclopropyl)methoxy)pyrimidin-5-yl)pyrazin-2(1H)-one] | 12.9 |
| COc1ccc([C@H]2C[C@@H]2COc2nc(C)ncc2-c2ccc(=O)[nH]n2)nc1 [Example 63, 6-(4-(((1S,2S)-2-(5-methoxypyridin-2-yl)cyclopropyl)methoxy)-2-methylpyrimidin-5-yl)pyridazin-3(2H)-one] | 4.42 |
| COc1ccc([C@H]2C[C@@H]2COc2nc(C)ncc2-c2ccc(=O)n(C)n2)nc1 [Example 64, 6-(4-(((1S,2S)-2-(5-methoxypyridin-2-yl)cyclopropyl)methoxy)-2-methylpyrimidin-5-yl)-2-methylpyridazin-3(2H)-one] | 2.83 |
| Cc1ccc([C@H]2C[C@@H]2COc2nc(C)ncc2-c2cc(C)c(=O)n(C)n2)nc1 [Example 65, 2,4-dimethyl-6-(2-methyl-4-(((1S,2S)-2-(5-methylpyridin-2-yl)cyclopropyl)methoxy)pyrimidin-5-yl)pyridazin-3(2H)-one] | 1.83 |
| COc1ccc([C@H]2C[C@@H]2COc2nc(C)ncc2-c2cc(C)c(=O)n(C)n2)nc1 [Example 66, 6-(4-(((1S,2S)-2-(5-methoxypyridin-2-yl)cyclopropyl)methoxy)-2-methylpyrimidin-5-yl)-2,4-dimethylpyridazin-3(2H)-one] | 1.23 |
| COc1ccc([C@H]2C[C@@H]2COc2nc(C)ncc2-c2nn(C)c(=O)cc2C)nc1 [Example 67, 6-(4-(((1S,2S)-2-(5-methoxypyridin-2-yl)cyclopropyl)methoxy)-2-methylpyrimidin-5-yl)-2,5-dimethylpyridazin-3(2H)-one] | 5.55 |
| Cc1ccc([C@H]2C[C@@H]2COc2nc(C)ncc2-c2nn(C)c(=O)cc2C)nc1 [Example 68, 2,5-dimethyl-6-(2-methyl-4-(((1S,2S)-2-(5-methylpyridin-2-yl)cyclopropyl)methoxy)pyrimidin-5-yl)pyridazin-3(2H)-one] | 9.68 |
| CCn1ccc(-c2cnc(C)nc2OC[C@H]2C[C@@H]2c2ccc(C)cn2)cc1=O [Example 69, 1-ethyl-4-(2-methyl-4-(((1S,2S)-2-(5-methylpyridin-2-yl)cyclopropyl)methoxy)pyrimidin-5-yl)pyridin-2(1H)-one] | 1.43 |
| COc1ccc([C@H]2C[C@@H]2COc2nc(C)ncc2-c2ccn(C)c(=O)c2)nc1 [Example 70, 4-(4-(((1S,2S)-2-(5-methoxypyridin-2-yl)cyclopropyl)methoxy)-2-methylpyrimidin-5-yl)-1-methylpyridin-2(1H)-one] | 1.25 |
